Measurements: patent US20070099931A1, “Pharmaceutical dosage forms and compositions” (Wyeth, priority 2004, published 2007)
In brackets after ≈: the same amount, converted by molar mass.

Experiments:
[1] = tested on: 5-HT1A agonist discriminative stimulus cue; conditions: 0.01-1 mg/kg im; cited from earlier work
[2] = aged rhesus monkeys, optimal dose 1 mg/kg po; cited from earlier work
Solubility in water = type: physicochemical; conditions: 25° C.
[3] = tested on: hippocampal extracellular 5-HT; conditions: cited from earlier work
[4] = marmosets, 2 mg/kg im; cited from earlier work
5-HT1A receptor [5] = molecular target: T1, 5-HT1A receptor (Homo sapiens, UniProt P08908); conditions: in vitro; cited from earlier work
T1 sequence (P08908 1-422): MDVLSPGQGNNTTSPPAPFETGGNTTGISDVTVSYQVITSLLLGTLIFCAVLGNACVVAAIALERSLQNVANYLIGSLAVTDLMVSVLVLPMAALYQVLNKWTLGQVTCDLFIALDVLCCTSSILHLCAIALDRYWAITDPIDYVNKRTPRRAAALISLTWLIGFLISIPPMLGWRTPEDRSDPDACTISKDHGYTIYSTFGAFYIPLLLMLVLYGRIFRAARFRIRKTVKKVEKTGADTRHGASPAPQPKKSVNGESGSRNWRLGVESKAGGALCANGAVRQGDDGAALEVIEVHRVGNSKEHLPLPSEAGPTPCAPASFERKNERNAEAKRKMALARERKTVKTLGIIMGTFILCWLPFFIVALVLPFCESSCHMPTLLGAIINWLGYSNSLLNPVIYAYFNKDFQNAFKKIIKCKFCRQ

[6] = tested on: glutamate and acetylcholine release; conditions: dentate gyrus of the hippocampus; cited from earlier work
5-HT1A receptor [7] = conditions: chronic administration; cited from earlier work

solubility (Solubility in water): ~51 mg/mL (≈ 105 mM)
Structure (SMILES): C[C@H](CN(C(=O)c1ccc(C#N)cc1)c1ccccn1)N1CCN(c2cccc3c2OCCO3)CC1 [lecozotan, 4-cyano-N-{(2R)-2-[4-(2,3-dihydro-benzo[1,4]dioxin-5-yl)-piperazin-1-yl]-propyl}-N-pyridin-2-yl-benzamide]
blockade of the 5-HT1A agonist discriminative stimulus cue [1]: dose-related blockade | substitution for 8-OH-DPAT [1]: did not substitute for 8-OH-DPAT | task performance efficiency [2]: significant improvement in task performance efficiency | effect alone on hippocampal extracellular 5-HT ([3]; doses 10-fold higher than 0.3 mg/kg sc): had no effects alone | effect on decrease in hippocampal extracellular 5-HT induced by 8 OH-DPAT (0.3 mg/kg sc) ([3]; lecozotan 0.3 mg/kg sc): antagonized the decrease in hippocampal extracellular 5-HT | learning deficits induced by specific cholinergic lesions of the hippocampus [4]: reversed | learning deficits induced by the glutamatergic antagonist MK-801 [4]: reversed | 5-HT1A receptor binding and intrinsic activity (5-HT1A receptor [5]): potent and selective 5-HT1A receptor antagonist | potassium chloride-stimulated release of glutamate and acetylcholine [6]: significantly potentiated | 5-HT1A receptor tolerance or desensitization (5-HT1A receptor [7]): did not induce 5-HT1A receptor tolerance or desensitization
